This series can be described thus: Assay (II) PK i.v. minipig, in vivo half-life. On the set-up: species or system Göttingen mini-pigs. The settings on record: male, Göttingen, iv. The method, then: An assay useful for measuring the pharmacokinetic (PK) profile of the PP peptide is the following mini-pig PK assay.
Five male Göttingen mini-pigs weighing approximately 18 to 22 kg from Ellegaard Göttingen Minipigs NS, Denmark are included in the study. The mini-pigs have two central venous catheters inserted which are used for intra venous (i.v.) dosing and blood sampling. The test compound is dissolved in 50 mM K2HPO4, 0.05% tween 80, pH=8.0 to a concentration of 180 nmol/ml. For comparison a control compound, such as human PP(1-36), may be administered. The pigs are dosed with 6 nmol test compound/kg body weight. Blood samples are taken at the following time points: pre-dose, 30 minutes, 1, 2, 4, 8, 24, 48, 72, 96, 120, 168 and 240 hours post dosing. The blood samples were collected into test tubes containing EDTA buffer for stabilization and kept on ice for max. 20 minutes before centrifugation. The centrifugation procedure to separate plasma may be: 4° C., approx. 2500 g for 10 minutes. Plasma is collected and immediately transferred to Micronic tubes stored at −20° C. until assayed.
The test compounds were assayed in plasma by Turbulent Flow Chromatography coupled to Liquid Chromatography with subsequent Tandem Mass Spectrometric Detection (TFC/LC/MS/MS). Positive mode ionization and Multiple Reaction Monitoring (MRM) of a multiple protonated species fragmented to a singly charged ion was employed for selectivity. The selectivity of the method allows multiple compounds to be quantified in one sample.
The concentrations of the test compound in samples of unknown concentration were calculated using the peak area as a function of amount. Calibration graphs based on plasma samples spiked with the analyte were constructed by regression analysis. Typical dynamic range for standard assay was 1-2000 nmol/I. The method performance was assured by co-assaying quality control (QC) samples in duplicate at three concentration levels.
Stock and working solutions of analytes were prepared in plasma and incubated by 37° C. for 1 hour.
Sample Preparation: 40.0 μl EDTA-plasma was added 160 μl 50% methanol, 1% formic acid, then vortexed and centrifuged at 16457 g at 4° C. for 20 minutes. The supernatant was transferred to a 96 well plate, plates incubated with 0.4% BSA, 37° C. for ½ hour. Injection volume was 25 μl.
The analysis was carried out on a Sciex API 3000 mass spectrometer (MDS/Sciex, Concord, ON, Canada) using a TurbolonSpray interface. The TFC/LC system consisted of two Flux Rheos 2000 quaternary pumps, a Cohesive VIM module (Cohesive Technologies, Franklin, Mass., USA) and a CTC LC/PAL auto sampler (CTC Analytics, Zingen, Switzerland). The centrifuge employed was a HettichMikro 22R (A. Hettich, Tuttlingen, Germany). For sample clean up a TurboFlow C8 column (0.5×50 mm) (Cohesive Technologies/Thermofisher) was used and the LC separation was done on a Proteo 4 μm column (2.0×50 mm) (Phenomenex, Torrance, Calif., USA). Eluents were isocratic and gradient combinations of methanol, acetonitril, Milli-Q water and formic acid.
Non-compartmental analysis (NCA): Plasma concentration-time profiles are analyzed by non-compartmental pharmacokinetics analysis (NCA) using WinNonlin Professional 5.0 (Pharsight Inc., Mountain View, Calif., USA). NCA is performed using the individual plasma concentration-time profiles from each animal.

Setting [1] is: minipig, Half-life minipig, Assay (II).

Where two headings read alike, the source gives them in different places. Numbered stars: 1 amine (or outer) side, 2 acyl side, 3 side chain; on linkers, the order of the positions; unused ones are H or OH. Side chains are listed from the residue outwards. Peptide text beside a SMILES is read from it. * marks the point of attachment. C18 diacid = O=C(O)CCCCCCCCCCCCCCCCC(=O)*; γGlu = O=C(O)[C@H](CCC(=O)[*:2])N[*:1]; AEEA = NCCOCCOCC(=O)O

As for `CC[C@H](C)[C@H](NC(=O)[C@H](Cc1ccc(O)cc1)NC(=O)[C@H](CCCNC(=N)N)NC(=O)[C@H](CCCNC(=N)N)NC(=O)[C@H](CC(C)C)NC(=O)[C@H](CC(=O)O)NC(=O)[C@H](C)NC(=O)[C@H](C)NC(=O)[C@H](Cc1ccc(O)cc1)NC(=O)[C@H](CCC(N)=O)NC(=O)[C@H](C)NC(=O)[C@H](CCSC)NC(=O)[C@H](CCC(N)=O)NC(=O)[C@H](CCC(=O)O)NC(=O)[C@@H]1CCCN1C(=O)[C@@H](NC(=O)[C@H](C)NC(=O)[C@H](CCCCNC(=O)COCCOCCNC(=O)COCCOCCNC(=O)CC[C@H](NC(=O)CCCCCCCCCCCCCCCCC(=O)O)C(=O)O)NC(=O)[C@H](CC(=O)O)NC(=O)CNC(=O)[C@@H]1CCCN1C(=O)[C@H](Cc1ccc(O)cc1)NC(=O)[C@@H](NC(=O)[C@@H]1CCCN1C(=O)[C@H](CCC(=O)O)NC(=O)[C@H](CC(C)C)NC(=O)[C@@H]1CCCN1)C(C)C)[C@@H](C)O)C(=O)N[C@@H](CC(N)=O)C(=O)N[C@@H](CCSC)C(=O)N[C@@H](CC(C)C)C(=O)N[C@H](C(=O)N[C@@H](CCCNC(=N)N)C(=O)N1CCC[C@H]1C(=O)N[C@@H](CCCNC(=N)N)C(=O)N[C@@H](Cc1ccc(O)cc1)C(N)=O)[C@@H](C)O` [Compound W], the half-life (Table 2, PP(2-36) based, crude sample, i.v. minipig, read-out: Half-life minipig, Assay (II) (converted)) is 1740 min. Regarding `CC[C@H](C)[C@H](NC(=O)[C@H](Cc1ccc(O)cc1)NC(=O)[C@H](CCCNC(=N)N)NC(=O)[C@H](CCCNC(=N)N)NC(=O)[C@H](CC(C)C)NC(=O)[C@H](CC(=O)O)NC(=O)[C@H](C)NC(=O)[C@H](C)NC(=O)[C@H](Cc1ccc(O)cc1)NC(=O)[C@H](CCC(N)=O)NC(=O)[C@H](C)NC(=O)[C@H](CCSC)NC(=O)[C@H](CCC(N)=O)NC(=O)[C@H](CCCCNC(=O)COCCOCCNC(=O)COCCOCCNC(=O)CC[C@H](NC(=O)CCCCCCCCCCCCCCCCC(=O)O)C(=O)O)NC(=O)[C@@H]1CCCN1C(=O)[C@@H](NC(=O)[C@H](C)NC(=O)[C@H](CC(N)=O)NC(=O)[C@H](CC(=O)O)NC(=O)CNC(=O)[C@@H]1CCCN1C(=O)[C@H](Cc1ccc(O)cc1)NC(=O)[C@@H](NC(=O)[C@@H]1CCCN1C(=O)[C@H](CCC(=O)O)NC(=O)[C@H](CC(C)C)NC(=O)[C@@H]1CCCN1)C(C)C)[C@@H](C)O)C(=O)N[C@@H](CC(N)=O)C(=O)N[C@@H](CCSC)C(=O)N[C@@H](CC(C)C)C(=O)N[C@H](C(=O)N[C@@H](CCCNC(=N)N)C(=O)N1CCC[C@H]1C(=O)N[C@@H](CCCNC(=N)N)C(=O)N[C@@H](Cc1ccc(O)cc1)C(N)=O)[C@@H](C)O` [Compound S] (H-PLEPVYPGDNATPK([AEEA-AEEA-γGlu-C18 diacid])QMAQYAADLRRYINMLTRPRY-NH2; N-terminus and C-terminus assumed), under setting [1], the half-life was 2100 min. Regarding `CC[C@H](C)[C@H](NC(=O)[C@H](Cc1ccc(O)cc1)NC(=O)[C@H](CCCNC(=N)N)NC(=O)[C@H](CCCNC(=N)N)NC(=O)[C@H](CC(C)C)NC(=O)[C@H](CC(=O)O)NC(=O)[C@H](C)NC(=O)[C@H](C)NC(=O)[C@H](CCCCNC(=O)COCCOCCNC(=O)COCCOCCNC(=O)CC[C@H](NC(=O)CCCCCCCCCCCCCCCCC(=O)O)C(=O)O)NC(=O)[C@H](CCC(N)=O)NC(=O)[C@H](C)NC(=O)[C@H](CCSC)NC(=O)[C@H](CCC(N)=O)NC(=O)[C@H](CCC(=O)O)NC(=O)[C@@H]1CCCN1C(=O)[C@@H](NC(=O)[C@H](C)NC(=O)[C@H](CC(N)=O)NC(=O)[C@H](CC(=O)O)NC(=O)CNC(=O)[C@@H]1CCCN1C(=O)[C@H](Cc1ccc(O)cc1)NC(=O)[C@@H](NC(=O)[C@@H]1CCCN1C(=O)[C@H](CCC(=O)O)NC(=O)[C@H](CC(C)C)NC(=O)[C@@H]1CCCN1)C(C)C)[C@@H](C)O)C(=O)N[C@@H](CC(N)=O)C(=O)N[C@@H](CCSC)C(=O)N[C@@H](CC(C)C)C(=O)N[C@H](C(=O)N[C@@H](CCCNC(=N)N)C(=O)N1CCC[C@H]1C(=O)N[C@@H](CCCNC(=N)N)C(=O)N[C@@H](Cc1ccc(O)cc1)C(N)=O)[C@@H](C)O` [Compound N] (H-PLEPVYPGDNATPEQMAQK([AEEA-AEEA-γGlu-C18 diacid])AADLRRYINMLTRPRY-NH2; N-terminus and C-terminus assumed), the half-life under setting [1] is 2640 min.

Broadly, the half-life is how long it takes for the measured level to halve.

The values are drawn from US20150141336A1, “Pancreatic Peptide Compounds and Use” (Novo Nordisk A/S, priority 2012, published 2015).
